“And” between values parts separate entries of the source, which are not always exact repeats. Equal values may be shown once.
Test system: A549 human lung epithelial cells
Experiment: H2O2 oxidative stress protection, live cell count (trypan blue dye exclusion)
Format: cell-based
Conditions: for Live cell Number: 4 hours, A549
Procedure: A549 human lung epithelial cells were seeded and treated with 2.5 mM H202 with or without lipid for 4 hours. Cells were washed and trypsinized and live cells were counted. Test Sample Composition—The extract product titled LP 0817, example 1, was mixed with water at a 30% concentration yielding a compostion of Lipid Extract 23%, Lipoic Acid 7%, Water 70%. Lipid extract (produced by alcohol extraction process cited in example 1 without lipoic acid component)—23% lipids/77% water and lipoic acid at 7% concentration tested separately. 210 mg lipoic acid was dissolved with 2.8 ml. DMSO. (93% DMSO and 7% Lipoic Acid.) This is 100% solution. This working solution was diluted to 5%, 2%, 1% to use for hydrogen peroxide study. A549 human lung epithelial cells (1.5×10^5/well in 6 well dish) were seeded and treated with 2.5 mM H202 with or without lipid for 4 hours. Cells were washed and trypsinized and live cells (trypan blue dye exclusion assay) were counted. Cell number is represented as 10^4.

## O=C(O)CCCCC1CCSS1 (stereo not shown) [Lipoic Acid 7%, lipoic acid]
7% lipoic acid in DMSO working solution diluted to 1% + H2O2 (2.5 mM)
  Live cell Number: 13 10^4 and 14 10^4
7% lipoic acid in DMSO working solution diluted to 2% + H2O2 (2.5 mM)
  Live cell Number: 14 10^4
7% lipoic acid in DMSO working solution diluted to 5% + H2O2 (2.5 mM)
  Live cell Number: 10 10^4 and 12 10^4
A549, 2.5 mM H2O2, 4 hours
  Protection of cells from H2O2 treatment/damage: Neither Lipid extract nor Lipoic acid protected the cells from H202 damage

From patent US20080003244A1, “Inflammation and Oxidative Stress Reducing Compostion for Topical or Oral Administration” (priority 2006, published 2008)
